In publication PMC12966202 (Molecular Imaging and Biology, 2025):
Values joined by “and” are separate entries in the source; they are usually repeats but may differ in a detail not shown here. Equal entries are not always repeated.

Method: Subjects with localized known or suspected infection were recruited and provided informed consent according to guidelines of the University of Pennsylvania Institutional Review Board. […] The full study protocols are available at clinicaltrials.gov, NCT03424525 and were performed under the authority of the University of Pennsylvania Radioactive Drug Research Committee.
PET scans were acquired from head to mid-thigh over 15 min in 10 overlapping bed positions at 90 s per bed position with ~ 50% bed overlap. The first PET scan was started immediately following injection, followed by a second scan at 20 ± 3 min post-injection, and a third scan at 63 ± 4 min post-injection. Suspected infections outside of the dosimetry scan field of view were optionally imaged following the acquisition of the final dosimetry scan. Subjects had the option to void bladders between the second and third PET/CT scans and following the last scan, without urine collection. Images were reconstructed using a list-mode time-of-flight ordered subsets expectation maximization algorithm (TOF-OSEM). […] These images were reconstructed using TOF-OSEM, but were not included in the quantitative dosimetry results (Fig. 2).
Total activity in the brain, gallbladder, heart, intestines, kidneys, liver, lungs, pancreas, spleen, thyroids, and urinary bladder was assessed via PET with MIM v6.7 (MIM Software Inc.), using co-registered CT images to delineate regions of interest. To enable estimation of total activity in red bone marrow, tracer uptake and volume were measured based on activity concentrations in the 2nd to 4th lumbar vertebrae of each subject. Using a red marrow density of 1.03 g/mL and assuming that red marrow weight is 1.6% of total body weight, total red marrow activity was calculated for each subject. Time activity curves for organs were generated and in most cases fit to mono- or bi-exponential functions using OLINDA | EXM v1.1 software RRID:SCR_026835 [23]. For time activity curves that were poorly fit by exponential functions, a Riemann Sum was used to calculate numbers of disintegrations occurring in the organs. Dosimetry estimates were calculated using the Standard Adult Male phantom option in OLINDA.

[1] = average injected activity of 346 MBq (9.4 mCi)

Effective dose equivalent (Mean ± SD, n = 4 males): 6.08E-03 ± 3.49E-04 mSv/MBq | Mean absorbed dose estimate, Adrenals (Mean ± SD, n = 4 males): 3.47E-03 ± 1.13E-04 mSv/MBq | Mean absorbed dose estimate, Bone (red marrow) (Mean ± SD, n = 4 males): 3.75E-03 ± 4.17E-04 mSv/MBq | Mean absorbed dose estimate, Brain (Mean ± SD, n = 4 males): 1.37E-03 ± 3.00E-04 mSv/MBq | Mean absorbed dose estimate, Breasts (Mean ± SD, n = 4 males): 1.95E-03 ± 8.35E-05 mSv/MBq | Mean absorbed dose estimate, Heart wall (Mean ± SD, n = 4 males): 4.66E-03 ± 3.36E-04 mSv/MBq | Mean absorbed dose estimate, Lower large intestine wall (Mean ± SD, n = 4 males): 2.83E-03 ± 8.88E-05 mSv/MBq | Mean absorbed dose estimate, Lungs (Mean ± SD, n = 4 males): 5.62E-03 ± 1.05E-03 mSv/MBq | Mean absorbed dose estimate, Muscle (Mean ± SD, n = 4 males): 2.25E-03 ± 6.29E-05 mSv/MBq | Mean absorbed dose estimate, Osteogenic cells (Mean ± SD, n = 4 males): 3.98E-03 ± 2.42E-04 mSv/MBq | Mean absorbed dose estimate, Ovaries (Mean ± SD, n = 4 males): 3.07E-03 ± 1.25E-04 mSv/MBq | Mean absorbed dose estimate, Pancreas (Mean ± SD, n = 4 males): 5.27E-03 ± 2.20E-03 mSv/MBq | Mean absorbed dose estimate, Skin (Mean ± SD, n = 4 males): 1.73E-03 ± 6.60E-05 mSv/MBq | Mean absorbed dose estimate, Small intestine (Mean ± SD, n = 4 males): 9.29E-03 ± 2.33E-03 mSv/MBq | Mean absorbed dose estimate, Stomach wall (Mean ± SD, n = 4 males): 2.83E-03 ± 6.34E-05 mSv/MBq | Mean absorbed dose estimate, Testes (Mean ± SD, n = 4 males): 2.03E-03 ± 1.05E-04 mSv/MBq | Mean absorbed dose estimate, Thymus (Mean ± SD, n = 4 males): 2.31E-03 ± 9.59E-05 mSv/MBq | Mean absorbed dose estimate, Thyroid (Mean ± SD, n = 4 males): 5.96E-03 ± 1.73E-03 mSv/MBq | Mean absorbed dose estimate, Total Body (Mean ± SD, n = 4 males): 2.84E-03 ± 6.24E-05 mSv/MBq | Mean absorbed dose estimate, Upper large intestine wall (Mean ± SD, n = 4 males): 4.86E-03 ± 7.38E-04 mSv/MBq | Mean absorbed dose estimate, Uterus (Mean ± SD, n = 4 males): 3.21E-03 ± 2.24E-04 mSv/MBq | Mean absorbed dose estimate, Gallbladder wall (Mean ± SD, one subject with cholecystectomy removed): 5.00E-03 ± 4.43E-04 mSv/MBq | background uptake in the brain (PET imaging, 4 adult males): low background uptake in the brain | estimated absorbed dose in the spleen [1]: 4.1 mSv | estimated effective dose [1]: 1.6 mSv | estimated absorbed dose in the liver (average injected activity of 346 MBq (9.4 mCi), highest uptake organ): 4.9 mSv
SMILES: COc1cc(Cc2cnc(N)nc2N)cc(OC)c1O[11CH3] [[^11C]TMP, [^11C]trimethoprim]
Effective dose (Mean ± SD, n = 4 males): 4.53E-03 mSv/MBq and 4.53E-03 ± 2.22E-04 mSv/MBq | Mean absorbed dose estimate, Kidneys (Mean ± SD, n = 4 males): 1.35E-02 mSv/MBq and 1.35E-02 ± 2.44E-03 mSv/MBq | Mean absorbed dose estimate, Liver (Mean ± SD, n = 4 males): 1.43E-02 mSv/MBq and 1.43E-02 ± 1.58E-03 mSv/MBq | Mean absorbed dose estimate, Spleen (Mean ± SD, n = 4 males): 1.18E-02 mSv/MBq and 1.18E-02 ± 4.64E-03 mSv/MBq | Mean absorbed dose estimate, Urinary bladder wall (Mean ± SD, n = 4 males): 1.10E-02 mSv/MBq and 1.10E-02 ± 5.55E-03 mSv/MBq
